Experiment [1] relates to withdrawal reflex of the rat tail (tail flick) in response to a radiant heat beam. Put plainly: Low-intensity tail flick test (rat). Format: in vivo. The conditions noted are these: po, peroral, read-out: Low intensity tail flick, rat, peroral, % MPE (dose [mg/kg]). Here is the method:
(§1) [formula] increases dose dependently. Calculations of EC50 and IC50 values are carried out with the aid of ‘Prism v4.0’ software (GraphPad Software™) Method II. Low-Intensity Tail Flick Test (Rat)
In the low-intensity tail flick test, the determination of the antinociceptive effect of the compounds according to the invention towards an acute noxious thermal stimulus is carried out by measuring the withdrawal reflex of the rat tail (tail flick) in response to a radiant heat beam (analgesia meter; model 2011 of the company Rhema Labortechnik, Hofheim, Germany) according to the method described by D'Annour and Smith (J. Pharm. Exp. Ther. 72, 74 79 (1941). To this end, the rats were placed in a plexiglas restrainer, and a low-intensity radiant heat beam (48° C.) was focused onto the dorsal surface of the tail root. The stimulus intensity was adjusted to result in a mean pre-drug control withdrawal latency of about 7 s, thus also allowing a supraspinal modulation of the spinally mediated acute nociceptive reflex. A cutoff time of 30 s was applied to avoid tissue damage. Male Sprague-Dawley rats (Janvier, Le Genest St. Isle, Frankreich) with weights of 200-250 g were used. 10 rats were used per group. Before administration of a compound according to the invention, the animals were pre-tested twice in the course of five minutes and the mean of these measurements was calculated as the pre-test mean. The antinociceptive effect was determined at 20, 40 and 60 min after peroral compound administration. The antinociceptive effect was calculated based on the increase in the tail withdrawal latency according to the following formula and is expressed as percentage of the maximum possible effect (MPE [%]): MPE=[(T1−T0)/(T2−T0)]*100
In this, T0 is the control latency time before and T1 the latency time after administration of the compound, T2 is the cutoff time and MPE is the maximum possible effect. Employing variant analysis (repeated measures ANOVA) allowed testing of statistically significant differences between the compounds according to the invention and the vehicle group. The significance level was set to p≦0.05. To determine the dose dependency, the particular compound according to the invention was administered in 3-5 logarithmically increasing doses, including a threshold dose and a maximum effective dose, and the ED50 values were determined with the aid of regression analysis. The ED50 calculation was performed at the time of maximum efficacy (usually 20 min after administration of the compounds).

In another experiment the target is T1, KCNQ2/3 channels (Homo sapiens, UniProt O43525+O43526).
T1 construct: expressed in transfected cells
Put plainly: Fluorescence assay using a voltage sensitive dye (fluorimetry). Conditions: CHO-K1 cells expressing KCNQ2/3 channels; for Emax: relative to retigabine = 100%, read-out: Fluorimetry % efficacy (retigabine = 100%). It counts as cell-based. The method, then: Method I. Fluorescence Assay Using a Voltage Sensitive Dye (Fluorimetry)
[…] CHO-K1 cells expressing KCNQ2/3 channels are cultivated adherently at 37° C., 5% CO2 and 95% humidity in cell culture bottles (e.g. 80 cm^2 TC flasks, Nunc) with DMEM-high glucose (Sigma Aldrich, D7777) including 10% FCS (PAN Biotech, e.g. 3302-P270521) or alternatively MEM Alpha Medium (1×, liquid, Invitrogen, #22571), 10% fetal calf serum (FCS) (Invitrogen, #10270-106, heat-inactivated) and the necessary selection antibiotics.
Before being sown out for the measurements, the cells are washed with 1×DPBS buffer Ca^2+/Mg^2+-free (e.g. Invitrogen, #14190-094) and detached from the bottom of the culture vessel by using Accutase (PAA Laboratories, #L11-007) (incubation with Accutase for 15 min at 37° C.). The cell number is determined using a CASY™ cell counter (TCC, Schärfe System). Depending on the optimal density for each individual cell line, 20,000-30,000 cells/well/100 μl are seeded onto 96-well Corning™ CellBIND™ assay plates (Flat Clear Bottom Black Polystyrene Microplates, #3340). Freshly seeded cells are then left to settle for one hour at room temperature, followed by incubation for 24 hours at 37° C., 5% CO2 and 95% humidity.
The voltage-sensitive fluorescent dye from the Membrane Potential Assay Kit (Red™ Bulk format part R8123 for FLIPR, MDS Analytical Technologies™) is prepared by dissolving the contents of one vessel Membrane Potential Assay Kit Red Component A in 200 ml of extracellular buffer (ES buffer, 120 mM NaCl, 1 mM KCl, 10 mM HEPES, 2 mM CaCl2, 2 mM MgCl2, 10 mM glucose; pH 7.4). After removal of the nutrient medium, the cells are washed once with 200 μl of ES buffer, then loaded for 45 min at room temperature in 100 μl of dye solution in the dark.
Fluorescence measurements are carried out in a BMG Labtech FLUOstar™, BMG Labtech NOVOstar™ or BMG Labtech POLARstar™ instrument (525 nm excitation, 560 nm emission, Bottom Read mode). After incubation with the dye, 50 μl of the test substances in the desired concentrations, or 50 μl of ES buffer for control purposes, are applied to the wells of the assay plate and incubated for 30 min at room temperature while being shielded from light. The fluorescence intensity of the dye is then measured for 5 min and the fluorescence value F1 of each well is thus determined at a given, constant time. 15 μl of a KCl solution are then added to each well (final concentration of potassium ions 92 mM). The change in fluorescence intensity is subsequently monitored until all the relevant values have been obtained (mainly 5-30 min). At a given time post KCl application, a fluorescence value F2 is determined, in this case at the time of the fluorescence peak.
For calculation, the fluorescence intensity F2 is corrected for the fluorescence intensity F1, and the activity (ΔF/F) of the target compound on the potassium channel is determined as follows:
In order to determine whether a substance has agonistic activity,
[formula] can be related to
[formula] of control wells.
[formula] is determined by adding to the well only the buffer solution instead of the test substance, determining the value F1K of the fluorescence intensity, adding the potassium ions as described above, and measuring a value F2K of the fluorescence intensity. F2K and F1K are then calculated as follows: […]
A substance has an agonistic activity on the potassium channel if
[formula] is greater than
Independently of the comparison of
[formula] it is possible to conclude that a target compound has agonistic activity if
as §1

Data on 11 compounds can be found in patent US8445512B2, “Substituted quinoline-3-carboxamides as KCNQ2/3 modulators” (Gruenenthal GmbH, priority 2010, dated 2013).

Consider `CCCc1nc2cc(C(F)(F)F)ccc2c(C)c1C(=O)NCc1ccc(F)cc1` [Example 3, N-[(4-fluorophenyl)-methyl]-4-methyl-2-propyl-7-(trifluoromethyl)-quinoline-3-carboxylic acid amide], for which the inhibition in vivo at 10 mg/kg in experiment [1] was determined as 51%. Further, at KCNQ2/3 channels, a half-maximal response (EC50) required 43 nM and the Emax was determined as 126%.
Take `CCc1nc2cc(C(F)(F)F)ccc2c(C)c1C(=O)NCc1cccc(F)c1` [Example 6, 2-Ethyl-N-[(3-fluorophenyl)-methyl]-4-methyl-7-(trifluoromethyl)-quinoline-3-carboxylic acid amide]: the inhibition in vivo at 6.81 mg/kg in experiment [1] was 51%. Also, on KCNQ2/3 channels, the EC50 was found to be 178 nM and the Emax is 177%.
`Cc1c(C(=O)NCc2ccc(F)cc2)c(C(C)C)nc2cc(C(F)(F)F)ccc12` [Example 7, N-[(4-Fluorophenyl)-methyl]-2-isopropyl-4-methyl-7-(trifluoromethyl)-quinoline-3-carboxylic acid amide]: in experiment [1], the inhibition in vivo at 10 mg/kg was determined as 54%. Moreover, on KCNQ2/3 channels, the response was half-maximal at 65 nM (EC50) and the Emax worked out at 181%.
As for `Cc1c(C(=O)NCc2cccc(F)c2)c(C(C)C)nc2cc(C(F)(F)F)ccc12` [Example 8, N-[(3-Fluorophenyl)-methyl]-2-isopropyl-4-methyl-7-(trifluoromethyl)-quinoline-3-carboxylic acid amide], in experiment [1], the inhibition in vivo at 10 mg/kg worked out at 65%. For the same compound, at KCNQ2/3 channels, the EC50 stood at 53 nM and the Emax was found to be 185%.
Regarding `Cc1c(C(=O)NCc2ccc(F)cc2)c(C2CC2)nc2cc(C(F)(F)F)ccc12` [Example 9, 2-Cyclopropyl-N-[(4-fluorophenyl)-methyl]-4-methyl-7-(trifluoromethyl)-quinoline-3-carboxylic acid amide], the inhibition in vivo at 10 mg/kg in experiment [1] stood at 15%. For the same compound, on KCNQ2/3 channels, the midpoint of the response, the EC50, lay at 126 nM and the Emax came out at 161%.
Consider `Cc1c(C(=O)NCc2cccc(F)c2)c(C2CC2)nc2cc(C(F)(F)F)ccc12` [Example 10, 2-Cyclopropyl-N-[(3-fluorophenyl)-methyl]-4-methyl-7-(trifluoromethyl)-quinoline-3-carboxylic acid amide], for which the inhibition in vivo at 6.81 mg/kg in experiment [1] was 43%. Besides, at KCNQ2/3 channels, the response was half-maximal at 91 nM (EC50) and the Emax turned out to be 182%.
`COCc1nc2cc(C(F)(F)F)ccc2c(C)c1C(=O)NCc1cccc(F)c1` [Example 15, N-[(3-fluorophenyl)-methyl]-2-(methoxymethyl)-4-methyl-7-(trifluoromethyl)-quinoline-3-carboxylic acid amide]: the inhibition in vivo at 10 mg/kg in experiment [1] amounted to 9%. At KCNQ2/3 channels, the concentration giving a half-maximal response (EC50) stood at 635 nM and the Emax came out at 117%.
For the compound `COCc1nc2cc(C(F)(F)F)ccc2c(C)c1C(=O)NCc1ccc(F)cc1` [Example 16, N-[(4-Fluorophenyl)-methyl]-2-(methoxymethyl)-4-methyl-7-(trifluoromethyl)-quinoline-3-carboxylic acid amide], the inhibition in vivo at 10 mg/kg in experiment [1] came to 21%. On KCNQ2/3 channels, the EC50 was 393 nM and the Emax is 96%.
As to `Cc1c(C(=O)NCc2ccc(F)cc2)c(C2CC2)nc2cc(C#N)ccc12` [Example 38, 7-cyano-2-cyclopropyl-N-[(4-fluorophenyl)-methyl]-4-methyl-quinoline-3-carboxylic acid amide], at KCNQ2/3 channels, the EC50 is 118 nM and the Emax worked out at 122%.
For `Cc1c(C(=O)NCc2cccc(F)c2)c(C(C)C)nc2cc(C#N)ccc12` [Example 39, 7-Cyano-N-[(3-fluorophenyl)-methyl]-2-isopropyl-4-methyl-quinoline-3-carboxylic acid amide], on KCNQ2/3 channels, the EC50 amounted to 215 nM and the Emax came to 174%.
Take `Cc1c(C(=O)NCc2ccc(F)cc2)c(C(C)C)nc2cc(C#N)ccc12` [Example 40, 7-Cyano-N-[(4-fluorophenyl)-methyl]-2-isopropyl-4-methyl-quinoline-3-carboxylic acid amide]: at KCNQ2/3 channels, the EC50 amounted to 190 nM and the Emax is 163%.
